Source: article PMC4865845, “A human genome-wide loss-of-function screen identifies effective chikungunya antiviral drugs” (Nature Communications, 2016)

Test system: CHIKV
Type: cell-based, chikungunya virus

Substance | Score_si1 | Score_si2 | Score_si3 | Score_si4
Hs_CALM2_7 (CAAAGGAATTGGGAACTGTAA; chemistry not given here) | 3.2 |  |  | 
Hs_MGC13138_1 (CTGGCATTTCCCGCTCATTTA; chemistry not given here) [reference compound] | -2.19 |  |  | 
Hs_PITRM1_3 (CAGCGTTGAAAGTTTCCGATA; chemistry not given here) [reference compound] |  | -1.16 |  | 
Hs_YEATS4_2 (TTGGTAGTAAGCTAAACTGAA; chemistry not given here) |  | 1.07 |  | 
s195642 (sense GGTGAGGACAAGTTCCAGT; chemistry not given here) |  |  | 0.49 | 
Hs_SCLY_2 (sense CAGAAACTAAATTAACGAATA; chemistry not given here) |  |  |  | 1.04
Hs_SEC61B_2 (sense CCCAACATTTCTTGGACCAAA; chemistry not given here) |  |  | 1.09 | 
Hs_PPIL2_3 (CACCAATTTGGACAAGTTCAA; chemistry not given here) |  | 1.2 |  | 
s12384 (sense TCGTCCTCTTTAACCCTGA; chemistry not given here) |  |  | 1.24 | 
s33582 (CACCTAGAGTACGAAAACA; chemistry not given here) | 1.69 |  |  | 
Hs_HTATIP_8 (sense CACCACATTGCCTGTCCTCTA; chemistry not given here) | 2.67 |  |  | 
s35332 (CAGGTATTCAGGTCCATGA; chemistry not given here) |  |  | 0.27 | 
Hs_GNG13_3 (sense CCCACTCACAACATCTTGTAA; chemistry not given here) |  |  |  | 0.93
Hs_INTS8_2 (sense CTGGGAATTAAAGACAATTTA; chemistry not given here) |  | 2.65 |  | 
s26801 (sense CCGAGAACCTCACAGAGAA; chemistry not given here) | 2.26 |  |  | 
s15798 (GAATTACGGAGATATAGAA; chemistry not given here) |  | 1.46 |  | 
Hs_D21S2056E_1 (CAGGGAATTCAGCTCCAGTAA; chemistry not given here) | 2.83 |  |  | 
s10955 (sense GAGAAGAAGTATTACTTAT; chemistry not given here) |  |  |  | 0.29
s15684 (sense GGAGCTGATCATCAACAAA; chemistry not given here) |  |  |  | 1.33
Hs_RORC_2 (sense TAGGATGTGCCGGGCCTACAA; chemistry not given here) | 1.28 |  |  | 
Hs_FLJ10134_1 (CTGATGTTATATGACTATAAA; chemistry not given here) | 1.71 |  |  | 

Substance | Score_si1 | Score_si2 | Score_si3 | Score_si4
s38293 (GTAACAACAAATACTCATA; chemistry not given here) |  | 1.65 |  | 
Hs_CCDC6_2 (sense CAGGAATTTCAGGTCAACAAA; chemistry not given here) [reference compound] |  | -0.83 |  | 
Hs_EEF1A1_4 (CAACGTTACAACGGAAGTAAA; chemistry not given here) | 2.64 |  |  | 
Hs_BRD8_1 (TGCAATGACATTGCAACGAAA; chemistry not given here) |  |  |  | 0.57
s29 (CCCATAATATCATTGAGAA; chemistry not given here) |  | 1.87 |  | 
s7586 (sense CCTACTGTCTGGTAGCGAT; chemistry not given here) |  | 1.49 |  | 
s27210 (sense GGTTTTAAACATAACGAAA; chemistry not given here) [reference compound] |  |  | -0.32 | 
Hs_PTBP1_18 (sense GCGCGTGAAGATCCTGTTCAA; chemistry not given here) [reference compound] |  |  |  | -0.53
Hs_CSNK1A1_5 (sense AGGGCTAAAGGCTGCAACAAA; chemistry not given here) | 2.25 |  |  | 
s5296 (sense GCTTCACCATCGAATCCAA; chemistry not given here) |  |  | 1.01 | 
Hs_NCOA1_1 (CAGCGGGAACTGTACAGTCAA; chemistry not given here) |  | 1.96 |  | 
s16459 (GATGGATCCATGTAATACA; chemistry not given here) |  |  |  | 0.81
Hs_RRBP1_3 (sense CTGGCTGCAGGTGAAAGGAAA; chemistry not given here) |  |  |  | 1.53
Hs_GCN1L1_2 (sense CAGGTTCAGCTGGAATGTGAA; chemistry not given here) | 2.09 |  |  | 
s14380 (sense GGACCACGTCAAGACTTGT; chemistry not given here) [reference compound] |  |  | -0.84 | 
Hs_LRP6_2 (CTGGATTGTTATCCGACTGAA; chemistry not given here) |  | 1.63 |  | 
Hs_FLJ10134_2 (CTCCTTGACCATGGAATTATA; chemistry not given here) |  | 1.53 |  | 
Hs_ROCK1_9 (sense AACGGTTAGAACAAGAGGTAA; chemistry not given here) | 1.18 |  |  | 
Hs_RTN2_2 (sense GAGCTTGGATTTACACTGTAA; chemistry not given here) | 2.8 |  |  | 
s20509 (sense GGACGGCCCAAATCCAAAA; chemistry not given here) [reference compound] |  |  | -0.99 | 
s24801 (sense CCAAGGTCCTGAGGTCTAA; chemistry not given here) |  |  | 1.43 | 

Substance | Score_si1 | Score_si2 | Score_si3 | Score_si4
s15685 (sense GGATGAGAGTCGCACCTAT; chemistry not given here) | 2.03 |  |  | 
Hs_NPAT_1 (ACCAATGCACATATAATTTAA; chemistry not given here) [reference compound] |  | -1.26 |  | 
Hs_ZBTB24_1 (CTCCAGGAAATTAAATATTTA; chemistry not given here) |  | 1.74 |  | 
Hs_CAMKK2_4 (sense ACAGAAAGGGCTTGAAATTTA; chemistry not given here) |  |  | 1.25 | 
s50141 (sense AGATACCTTTATGAATATA; chemistry not given here) [reference compound] |  |  | -0.76 | 
Hs_NAG_1 (CAGAGGAAGATTGAAAGTGAA; chemistry not given here) |  | 2.12 |  | 
Hs_C14orf160_2 (ATGGAGTTACTGAAATGTATA; chemistry not given here) [reference compound] |  | -1.06 |  | 
s9030 (CATCTGGAATTAACTGGAT; chemistry not given here) |  |  | 1.53 | 
Hs_NRD1_2 (AAGGCTTTCGATTGCCCGGAA; chemistry not given here) |  | 1.41 |  | 
Hs_CLK1_4 (sense CCGTATTTCCAACACACGATA; chemistry not given here) |  |  |  | 0.91
Hs_LOXL2_3 (sense CAGGCAATGAGAAGTCCATTA; chemistry not given here) | 2.38 |  |  | 
s25186 (sense ACTTCTCCGTGATCCTGAA; chemistry not given here) |  | 1.53 |  | 
Hs_PPP1R8_6 (TACAAATAAAGATGCCCTAAA; chemistry not given here) |  | 0.7 |  | 
s195643 (sense CCCTAGGCGCTGGATTTTG; chemistry not given here) |  |  |  | 0.23
s14080 (sense GAGTGGTCTTTTCAACACT; chemistry not given here) |  | 1.38 |  | 
Hs_DC-UbP_5 (AGGCAGTTAAGAAATAGATAA; chemistry not given here) |  |  | 0.86 | 
Hs_AP3S2_1 (TGGGATGGTGTTGGAAACAAA; chemistry not given here) |  | 1.11 |  | 
s8542 (AGGTTTTAACGATTTGTTT; chemistry not given here) |  | 0.14 |  | 
s6672 (sense GACTAATGAACTACTAAAA; chemistry not given here) |  |  | 0.16 | 
s31791 (GACCTTAAGATACCAGTAT; chemistry not given here) |  | 1.71 |  | 
Hs_UIP1_3 (CTCGAGGGTCTGTATATCACA; chemistry not given here) [reference compound] |  |  |  | 0.1

Substance | Score_si1 | Score_si2 | Score_si3 | Score_si4
s17590 (CAACAGTTCTCAGACCAAA; chemistry not given here) [reference compound] |  | -0.8 |  | 
s19989 (sense CTATGCTACCCTCTACTTT; chemistry not given here) |  |  |  | 0.18
Hs_PTX3_2 (sense AAGAAAGAAACTCACACTTAA; chemistry not given here) | 1.48 |  |  | 
Hs_MRPS12_2 (CTGCTGGGACAAGACACTGTA; chemistry not given here) |  | 1.92 |  | 
s16461 (GGTCAATCCTAGTATCTCT; chemistry not given here) |  |  | 0.88 | 
s8322 (GGTCGGAGATTTGCAAGGA; chemistry not given here) |  |  | 1.44 | 
s51652 (sense CCAGGCCCATTCTACAATA; chemistry not given here) |  |  |  | 0.04
Hs_HMGA1L4_1 (sense AAGCCTCAGCTCAAACTCAAA; chemistry not given here) | 2.38 |  |  | 
s9719 (GGTCTATGATTGACAAGTA; chemistry not given here) | 1.65 |  |  | 
s21552 (sense TCGCTTCTGTATTTATGTT; chemistry not given here) |  | 1.41 |  | 
s13807 (sense GCATCTGAAGACTCAGGCA; chemistry not given here) |  |  |  | -0.26
Hs_SYMPK_1 (sense CAGGAGCTGATCATCAACAAA; chemistry not given here) |  |  | 1.54 | 
Hs_PD2_2 (CACCATTATTGTGAGCAGCAA; chemistry not given here) | 1.77 |  |  | 
Hs_TAZ_2 (sense CCGCCACATCTGGAACCTGAA; chemistry not given here) | 2.45 |  |  | 
s29017 (GTCAGTACTTTATCTCGTT; chemistry not given here) |  | 1.25 |  | 
s18079 (CAATAGTAAAGGGATATAA; chemistry not given here) [reference compound] |  |  |  | -0.28
s5570 (sense TGAACAAGATGGTATCAAA; chemistry not given here) |  |  |  | -0.08
s79 (sense CCAGCTATCTATAACCTTA; chemistry not given here) |  |  |  | 2.02
s8004 (sense GTGGAGGAATGGTTCAATA; chemistry not given here) |  |  | 0.87 | 
